Measured values reported in US20220401564A1 (DANA-FARBER CANCER INSTITUTE, INC., priority 2019, published 2022).
Entries after “also recorded” stand apart in the source; their conditions may differ.

Columns and labels:
HDAC3 = HDAC3 (Homo sapiens, UniProt O15379); assay: Change in cellular protein abundance (TMT proteomics) in Kelly cells; type: cell-based; design: relative change in relative protein abundance with treatment of Kelly cells; endogenous in cells; host or cells: Kelly cells; conditions: for HDAC3 protein levels, relative protein abundance compared to DMSO control: scatter plots FIG. 1 and FIG. 3
Description: Lysis buffer (8 M Urea, 50 mM NaCl, 50 mM 4-(2hydroxyethyl)-1-piperazineethanesulfonic acid (EPPS) pH 8.5, protease and phosphatase inhibitors from Roche®) were added to the cell pellets and homogenized by 20 passes through a 21 gauge (1.25 in. long) needle to achieve a cell lysate with a protein concentration between 1-4 mg mL-1. A micro-BCA assay (Pierce™) was used to determine the final protein concentration in the cell lysate. 200 μg of protein for each sample were reduced and alkylated as described in Donovan et al., Elife 7:e38430 (2018).
Proteins were precipitated using methanol/chloroform. Four volumes of methanol were added to the cell lysate, followed by one volume of chloroform, and finally three volumes of water. The mixture was vortexed and centrifuged to separate the chloroform phase from the aqueous phase. The precipitated protein was washed with three volumes of methanol, centrifuged and the resulting washed precipitated protein was allowed to air dry. The precipitated protein was resuspended in 4 M Urea, 50 mM HEPES pH 7.4, followed by dilution to 1 M urea with the addition of 200 mM EPPS, pH 8. Proteins were first digested with LysC (1:50; enzyme:protein) for 12 hours at room temperature. The LysC digestion was diluted to 0.5 M Urea with 200 mM EPPS pH 8 followed by digestion with trypsin (1:50; enzyme:protein) for 6 hours at 37° C. Tandem mass tag (TMT) reagents (Thermo Fisher Scientific) were dissolved in anhydrous acetonitrile (ACN) according to manufacturer's instructions.
Anhydrous ACN was added to each peptide sample to a final concentration of 30% v/v, and labeling was induced with the addition of TMT reagent to each sample at a ratio of 1:4 peptide:TMT label. The 10-plex labeling reactions were performed for 1.5 hours at room temperature and the reaction quenched by the addition of hydroxylamine to a final concentration of 0.3% for 15 minutes at room temperature. The sample channels were combined at a 1:1:1:1:1:1:1:1:1:1:1 ratio, desalted using Cis solid phase extraction cartridges (Waters®) and analyzed by LC-MS for channel ratio comparison. Samples were then combined using the adjusted volumes determined in the channel ratio analysis and dried down in a speed vacuum. The combined sample was then resuspended in 1% formic acid, and acidified (pH 2-3) before being subjected to desalting with C18 SPE (Sep-Pak®, Waters®). Samples were then offline fractionated into 96 fractions by high pH reverse-phase HPLC (Agilent® LC1260) through an aeris peptide xb-c18 column (Phenomenex®) with mobile phase A containing 5% acetonitrile and 10 mM NH4HCO3 in LC-MS grade H2O, and mobile phase B containing 90% acetonitrile and 10 mM NH4HCO3 in LC-MS grade H2O (both pH 8.0). The 96 resulting fractions were then pooled in a non-continuous manner into 24 fractions and these fractions were used for subsequent mass spectrometry analysis.
Data were collected using an Orbitrap Fusion™ Lumos™ mass spectrometer (Thermo Fisher Scientific, San Jose, Calif., USA) coupled with a Proxeon EASY-nLC™ 1200 LC pump (Thermo Fisher Scientific). Peptides were separated on an EasySpray™ ES803 75 μm inner diameter microcapillary column (ThermoFisher Scientific).
Each analysis used an MS3-based TMT method as described previously. The data were acquired using a mass range of m z 340-1350, resolution 120,000, automatic gain control (AGC) target 1×10^6, maximum injection time 100 ms, dynamic exclusion of 120 seconds for the peptide measurements in the Orbitrap Fusion™ Lumos™ mass spectrometer. Data dependent MS2 spectra were acquired in the ion trap with a normalized collision energy (NCE) set at 55%, AGC target set to 1.5×10^5 and a maximum injection time of 150 ms. […]

VHL = target: T1, VHL (Homo sapiens, UniProt P40337); assay: Cellular VHL engagement assay (BRD4BD2-GFP / mCherry reporter cells); type: cell-based; conditions: with 250 nM AT1, 5 h
T1 construct: Cells stably expressing the BRD4BD2-GFP with mCherry reporter (40) were seeded; endogenous in cells
Description: Cells stably expressing the BRD4BD2-GFP with mCherry reporter (40) were seeded at 30-50% confluency in 384-well plates with 50 μL per well of FluoroBrite™ DMEM media (Thermo Fisher Scientific, A18967) supplemented with 10% FBS a day before compound treatment. Compounds and 250 nM AT1((2S,4R)-1-(2R)-2-Acetamido-3-[[6-[2-[(6S)-4-(4-chlorophenyl)-2,3,9-trimethyl-6H-thieno[3,2-f][1,2,4]triazolo[4,3-a][1,4]diazepin-6-yl]acetamido]hexyl]thio]-3-methylbutanoyl]-4-hydroxy-N-[4-(4-methylthiazol-5-yl)benzyl)pyrrolidinine-2-carboxamide) were dispensed using a D300e Digital Dispenser (HP), normalized to 0.5% DMSO, and incubated with the cells for 5 h. The assay plate was imaged immediately using an Acumen® High Content Imager (TTP Labtech) with 488 nm and 561 nm lasers in a […] grid per well format. The resulting images were analyzed using CellProfiler™.
A series of image analysis steps (an ‘image analysis pipeline’) was constructed. First, the red and green channels were aligned and cropped to target the middle of each well (to avoid analysis of the heavily clumped cells at the edges). A background illumination function was calculated for both red and green channels of each well individually and subtracted to correct for illumination variations across the 384-well plate from various sources of error. An additional step was then applied to the green channel to suppress the analysis of large auto fluorescent artifacts and enhance the analysis of cell specific fluorescence by way of selecting for objects under a given size (30 A.U.) and with a given shape (speckles). mCherry-positive cells were then identified in the red channel by filtering for objects 8-60 pixels in diameter and by using intensity to distinguish between clumped objects. The green channel was then segmented into GFP positive and negative areas and objects were labeled as GFP positive if at least 40% of it overlapped with a GFP positive area. The fraction of GFP-positive cells/mCherry-positive cells in each well was then calculated, and the green and red images were rescaled for visualization.

Sequence of HDAC3 (O15379 whole entry): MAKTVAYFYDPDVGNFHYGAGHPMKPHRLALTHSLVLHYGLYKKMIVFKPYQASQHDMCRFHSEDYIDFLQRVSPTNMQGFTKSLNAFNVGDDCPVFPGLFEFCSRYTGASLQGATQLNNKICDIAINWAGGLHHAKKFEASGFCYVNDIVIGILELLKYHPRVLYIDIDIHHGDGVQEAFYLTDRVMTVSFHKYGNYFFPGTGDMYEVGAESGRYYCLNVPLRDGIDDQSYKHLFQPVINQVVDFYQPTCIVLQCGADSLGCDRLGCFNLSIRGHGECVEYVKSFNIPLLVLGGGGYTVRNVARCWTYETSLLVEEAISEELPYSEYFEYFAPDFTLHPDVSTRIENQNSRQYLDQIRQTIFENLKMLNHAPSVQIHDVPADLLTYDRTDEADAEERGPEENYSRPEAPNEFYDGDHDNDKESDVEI
T1 sequence (P40337 whole entry, species assumed): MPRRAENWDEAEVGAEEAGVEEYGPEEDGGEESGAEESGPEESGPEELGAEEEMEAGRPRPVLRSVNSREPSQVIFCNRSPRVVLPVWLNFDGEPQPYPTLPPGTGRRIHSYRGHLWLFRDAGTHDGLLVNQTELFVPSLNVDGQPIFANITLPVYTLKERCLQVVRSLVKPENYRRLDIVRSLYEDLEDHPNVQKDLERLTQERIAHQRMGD

Row | Compound | cellular HDAC3 protein levels, change in relative protein abundance (heat map FIG. 2) (HDAC3; 1 μM, 5 hours, vs DMSO) | HDAC3 protein levels, relative protein abundance compared to DMSO control (HDAC3) | IC50 (VHL) [µM]
1 | Cc1ncsc1-c1ccc([C@H](C)NC(=O)[C@@H]2C[C@@H](O)CN2C(=O)[C@@H](NC(=O)CCOCCOCCN(CCc2c[nH]c3ccccc23)Cc2ccc(/C=C/C(=O)NO)cc2)C(C)(C)C)cc1 [Compound 2, (2S,4R)-1-((S)-14-(tert-butyl)-3-(4-((E)-3-(hydroxyamino)-3-oxoprop-1-en-1-yl)benzyl)-1-(1H-indol-3-yl)-12-oxo-6,9-dioxa-3,13-diazapentadecan-15-oyl)-4-hydroxy-N—((S)-1-(4-(4-methylthiazol-5-yl)phenyl)ethyl)pyrrolidine-2-carboxamide] | down-regulation | significant and selective reduction | 11.7
2 | Cc1ncsc1-c1ccc(CNC(=O)[C@@H]2C[C@@H](O)CN2C(=O)[C@@H](NC(=O)C2(F)CC2)C(C)(C)C)c(OCCCCCN(CCc2c[nH]c3ccccc23)Cc2ccc(/C=C/C(=O)NO)cc2)c1 [Compound 7, (2S,4R)—N-(2-((5-((2-(1H-indol-3-yl)ethyl)(4-((E)-3-(hydroxyamino)-3-oxoprop-1-en-1-yl)benzyl)amino)pentyl)oxy)-4-(4-methylthiazol-5-yl)benzyl)-1-((S)-2-(1-fluorocyclopropane-1-carboxamido)-3,3-dimethylbutanoyl)-4-hydroxypyrrolidine-2-carboxamide] |  | promote degradation; also recorded: significant and selective reduction | 9.4
